Experimental data reported in PubChem BioAssay AID1963846 (Molecular Pharmacology Branch, DTP, NCI, 2024).
pIC50: −log10 of the molar value.

System: 454973-116-R2-J3-PDC complex spheroid viability
Test: Anticancer human tumor 454973-116-R2-J3-PDC patient-derived pancreatic carcinoma cell line growth inhibition [POLQ]
Settings: for pIC50: curve of first compound; for viability, T/C: stronger effect = lower value
Method: Multicellular complex tumor spheroid response to Polymerase (POL) inhibitors (novobiocin, ART-558, RP6685) in combination with a variety of drugs and investigational agents in selected tumor cell lines
The POL inhibitors (novobiocin, ART-558, and RP6685) were evaluated both individually and in combination with standard of care and investigational anticancer small molecules within a complex spheroid model of solid tumors. . Complex spheroids include a stromal component modeled by human endothelial cells (HUVEC) and fibroblasts modeled by human mesenchymal stem cells (MSCs). The concentration ranges selected for each drug and investigational agent were based upon clinically achievable concentrations if the clinical Cmax of the agent was known.
Compounds. The drugs and investigational agents: novobiocin (NSC847541), ART-558 (NSC835418), RP-6685 (NSC848927), peposertib (NSC802822), ceralasertib (NSC780249), elimusertib (NSC800525), camonsertib (NSC841442), AZD-1390 (NSC803789), olaparib (NSC753686), talazoparib (NSC767125), rucaparib (NSC756644), sotorasib (NSC818433), MRTX-1133 (NSC836407), SN-38 (NSC673596), topotecan (NSC609699), epotoside (NSC141540), doxorubicin (NSC123127), gemcitabine (NSC613327), 5-fluorouracil (NSC19893), paclitaxel (NSC125973), vemurafenib (NSC761431), MSA-2 (NSC828583), SN-011 (NSC837082), adavosertib (NSC754352), prexasertib (NSC758257), carboplatin (NSC241240) and oxaliplatin (NSC266046), were obtained from the National Cancer Institute (NCI) Developmental Therapeutics Program Chemical Repository (21). The FDA-approved anticancer drug set is available from the Developmental Therapeutics Program at https://dtp.cancer.gov/organization/dscb/obtaining/. […] The stock solutions were prepared in dimethyl sulfoxide (DMSO, Sigma-Aldrich, St. Louis, MO, cat. D2650), except for the platinum compounds which were prepared in saline (Quality Biological, Gaithersburg, MD, cat. 114-055-101), at 800-fold the tested concentration and stored at -70 degrees C prior to their use. All drugs and investigational agents were tested over a range starting from a high concentration at or near the clinical Cmax and decreasing in half-log increments. If the clinical Cmax for an agent had not been determined, the highest concentration tested was 10 microM, except for SN-38, which was tested at a high concentration of 1 microM.
Cell Culture. All cells were maintained in an incubator at 37 degrees C and 5% CO2 with 95% humidity. The PDC lines were cultured according to standard operating procedures established by the NCI PDMR (https://pdmr.cancer.gov). Table 3 of the manuscript, lists the cell lines along with the number of the three cell types plated to form the mct-spheroids and media for tumor cell growth. After thawing, all PDC lines, except 997537-175-T-J1-PDC and 415267-285-R-J2-PDC, were cultured in Matrigel-coated flasks prepared with a working solution of 1X Ham's F-12 nutrient mix, without supplementation (Thermo Fisher Scientific, cat. 11765054), 100 U/mL penicillin-streptomycin (Thermo Fisher Scientific, cat. 15140122), and 2.5% Matrigel (Corning Inc., Corning, NY, cat. 354248) for the first three passages. The two PDC lines 997537-175-T-J1-PDC and 415267-285-R-J2-PDC were cultured on uncoated flasks. The 857933-349-R-J2-PDC line was cultured in 6C/Colon 1B media containing advanced DMEM/F-12 (Thermo Fisher Scientific, cat. 12634028), 10 mM HEPES (Thermo Fisher Scientific, cat. 15630080), 1X GlutaMAX supplement (Thermo Fisher Scientific, cat. 35050061), 0.1 mg/mL primocin (InvivoGen, San Diego, CA, cat. ant-pm-2), 10% defined fetal bovine serum, heat inactivated (HyClone Laboratories Inc., Logan, UT, cat. SH30070.03HI), 50% L-WRN conditioned media (ATCC, cat. CRL-3276), 1.25 mM N-Acetyl-L-cysteine (Sigma-Aldrich, cat. A9165), 10 mM nicotinamide (Sigma-Aldrich, cat. N0636), 1X B-27 supplement (Thermo Fisher Scientific, cat. 17504044), 1X N-2 supplement (Thermo Fisher Scientific, cat. […]
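Further: spheroids exposed to drugs for seven days before measurement.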
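Wherever viability, T/C is given: percent viability relative to DMSO vehicle control wells taken as 100%.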

SMILES: Cn1ncnc1[C@H]1c2n[nH]c(=O)c3cc(F)cc(c23)N[C@@H]1c1ccc(F)cc1 + COC1C(OC(N)=O)C(O)C(Oc2ccc3c(O)c(NC(=O)c4ccc(O)c(CC=C(C)C)c4)c(=O)oc3c2C)OC1(C)C
- pIC50 (second compound 0.0316 µM): < 7.00
- pIC50 (second compound 0.1 µM): < 7.00
- pIC50 (second compound 0.316 µM): < 7.00
- pIC50 (second compound 1 µM): < 7.00
- pIC50 (second compound 3.16 µM): < 7.00
- pIC50 (second compound 10 µM): < 7.00
- viability, T/C (second compound 0.0316 µM, first compound 0.000316 µM): 100%
- viability, T/C (second compound 0.0316 µM, first compound 0.001 µM): 111%
- viability, T/C (second compound 0.0316 µM, first compound 0.00316 µM): 102%
- viability, T/C (second compound 0.0316 µM, first compound 0.01 µM): 109%
- viability, T/C (second compound 0.0316 µM, first compound 0.0316 µM): 95.1%
- viability, T/C (second compound 0.0316 µM, first compound 0.1 µM): 83.4%
- viability, T/C (second compound 0.1 µM, first compound 0.000316 µM): 102%
- viability, T/C (second compound 0.1 µM, first compound 0.001 µM): 112%
- viability, T/C (second compound 0.1 µM, first compound 0.00316 µM): 105%
- viability, T/C (second compound 0.1 µM, first compound 0.01 µM): 104%
- viability, T/C (second compound 0.1 µM, first compound 0.0316 µM): 98.5%
- viability, T/C (second compound 0.1 µM, first compound 0.1 µM): 90.5%
- viability, T/C (second compound 0.316 µM, first compound 0.000316 µM): 112%
- viability, T/C (second compound 0.316 µM, first compound 0.001 µM): 114%
- viability, T/C (second compound 0.316 µM, first compound 0.00316 µM): 105%
- viability, T/C (second compound 0.316 µM, first compound 0.01 µM): 100%
- viability, T/C (second compound 0.316 µM, first compound 0.0316 µM): 93.5%
- viability, T/C (second compound 0.316 µM, first compound 0.1 µM): 83.3%
- viability, T/C (second compound 1 µM, first compound 0.000316 µM): 109%
- viability, T/C (second compound 1 µM, first compound 0.001 µM): 102%
- viability, T/C (second compound 1 µM, first compound 0.00316 µM): 107%
- viability, T/C (second compound 1 µM, first compound 0.01 µM): 102%
- viability, T/C (second compound 1 µM, first compound 0.0316 µM): 93.1%
- viability, T/C (second compound 1 µM, first compound 0.1 µM): 82.5%
- viability, T/C (second compound 3.16 µM, first compound 0.000316 µM): 107%
- viability, T/C (second compound 3.16 µM, first compound 0.001 µM): 111%
- viability, T/C (second compound 3.16 µM, first compound 0.00316 µM): 104%
- viability, T/C (second compound 3.16 µM, first compound 0.01 µM): 100%
- viability, T/C (second compound 3.16 µM, first compound 0.0316 µM): 104%
- viability, T/C (second compound 3.16 µM, first compound 0.1 µM): 88.9%
- viability, T/C (second compound 10 µM, first compound 0.000316 µM): 101%
- viability, T/C (second compound 10 µM, first compound 0.001 µM): 96%
- viability, T/C (second compound 10 µM, first compound 0.00316 µM): 98.3%
- viability, T/C (second compound 10 µM, first compound 0.01 µM): 103%
- viability, T/C (second compound 10 µM, first compound 0.0316 µM): 87.2%
- viability, T/C (second compound 10 µM, first compound 0.1 µM): 78.1%
